Experimental data: US6150385A, “1,3,4-thiadiazoles useful for the treatment of CMV infections” (Pharmacia & Upjohn Company, priority 1999, dated 2000)

Biological target: T1, HCMV polymerase (Human cytomegalovirus, UniProt P08546)
T1 construct: made in house; host or cells: SF-9 insect cells infected with recombinant baculovirus
Experiment: HCMV polymerase assay (scintillation proximity assay)
Assay type: biochemical
Details: percentage of inhibition at 25 μM concentration in CMV polymerase assay
In short: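 Values are percent inhibition at 25 μM, measured by scintillation proximity after capture of biotinylated poly(dA)-oligo(dT) (6 nM) extended with 90 nM 3H-dTTP. Recombinant SF-9-derived enzyme reacted 30 min at 25 or 37 °C in HEPES pH 7.5/KCl/MgCl2/BSA buffer, ±2 mM CHAPS, before EDTA termination.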

T1 sequence (P08546 whole entry): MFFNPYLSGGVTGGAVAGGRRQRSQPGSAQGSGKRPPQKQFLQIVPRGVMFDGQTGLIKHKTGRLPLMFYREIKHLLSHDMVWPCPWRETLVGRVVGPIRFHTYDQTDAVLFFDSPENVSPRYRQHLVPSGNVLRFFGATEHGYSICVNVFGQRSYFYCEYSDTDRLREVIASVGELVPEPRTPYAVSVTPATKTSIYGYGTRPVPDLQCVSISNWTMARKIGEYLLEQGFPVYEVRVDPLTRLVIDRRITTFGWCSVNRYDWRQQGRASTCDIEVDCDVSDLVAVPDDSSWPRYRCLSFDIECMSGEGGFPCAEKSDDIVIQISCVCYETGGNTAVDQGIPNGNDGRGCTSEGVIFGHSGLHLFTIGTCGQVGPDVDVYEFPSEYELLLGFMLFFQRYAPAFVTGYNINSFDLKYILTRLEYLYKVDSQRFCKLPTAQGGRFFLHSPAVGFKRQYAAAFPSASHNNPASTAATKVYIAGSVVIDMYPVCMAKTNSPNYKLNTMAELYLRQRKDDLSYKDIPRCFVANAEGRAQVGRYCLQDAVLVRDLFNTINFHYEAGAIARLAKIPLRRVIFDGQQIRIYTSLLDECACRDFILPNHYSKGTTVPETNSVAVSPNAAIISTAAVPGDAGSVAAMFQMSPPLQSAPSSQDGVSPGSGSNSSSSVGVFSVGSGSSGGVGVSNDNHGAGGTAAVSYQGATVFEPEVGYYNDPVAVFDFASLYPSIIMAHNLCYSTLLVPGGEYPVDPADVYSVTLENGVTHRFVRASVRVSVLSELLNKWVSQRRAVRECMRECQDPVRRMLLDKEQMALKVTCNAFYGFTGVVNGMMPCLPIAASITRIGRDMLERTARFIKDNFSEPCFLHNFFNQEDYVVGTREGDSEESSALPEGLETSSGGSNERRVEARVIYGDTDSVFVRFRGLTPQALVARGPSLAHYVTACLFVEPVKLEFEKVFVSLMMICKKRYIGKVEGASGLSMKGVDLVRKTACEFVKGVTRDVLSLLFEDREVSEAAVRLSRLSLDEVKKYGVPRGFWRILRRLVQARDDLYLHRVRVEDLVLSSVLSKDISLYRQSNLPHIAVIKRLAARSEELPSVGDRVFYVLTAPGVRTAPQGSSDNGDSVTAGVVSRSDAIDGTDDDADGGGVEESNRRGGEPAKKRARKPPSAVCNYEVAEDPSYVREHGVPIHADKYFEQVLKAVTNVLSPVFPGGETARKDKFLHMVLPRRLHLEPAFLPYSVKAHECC

inhibition at 25 µM	Structure (SMILES)
37.4%	CCCCCCCC/C=C/CCCCCCCC(=O)Nc1nnc(NC2CCc3ccccc32)s1 (centres unmarked) [compound 279, (E)-N-[5-(2,3-dihydro-1H-inden-1-ylamino)-1,3,4-thiadiazol-2-yl]-9-octadecenamide]
54.6%	CCSCCNc1nnc(NC(=O)c2ccc(I)cc2)s1 [compound 148, N-(5-{[2-(ethylsulfanyl)ethyl]amino}-1,3,4-thiadiazol-2-yl)-4-iodobenzamide]
43.5%	O=C(/C=C/c1ccccc1Cl)Nc1nnc(NCCCn2ccnc2)s1 [compound 221, (E)-3-(2-chlorophenyl)-N-(5-{[3-(1H-imidazol-1-yl)propyl]amino}-1,3,4-thiadiazol-2-yl)-2-propenamide]
99%	CCCCCCCC/C=C/CCCCCCCC(=O)Nc1nnc(NCCCN2CCN(C)CC2)s1 [compound 14, (E)-N-(5-{[3-(4-methylpiperazino)propyl]amino}-1,3,4-thiadiazol-2-yl)-9-octadecenamide]
24.7%	CC(=O)NCCNc1nnc(NC(=O)c2cc3ccccc3s2)s1 [compound 412, N-(5-{[2-(acetylamino)ethyl]amino}-1,3,4-thiadiazol-2-yl)-1-benzothiophene-2-carboxamide]
54.5%	CCCCCCCC/C=C/CCCCCCCC(=O)Nc1nnc(NCCc2c[nH]c3ccccc23)s1 [compound 149, (E)-N-(5-{[2-(1H-indol-3-yl)ethyl]amino}-1,3,4-thiadiazol-2-yl)-9-octadecenamide]
65.8%	CCOc1ccc2ccccc2c1C(=O)Nc1nnc(NCCc2cccs2)s1 [compound 97, 2-ethoxy-N-(5-{[2-(2-thienyl)ethyl]amino}-1,3,4-thiadiazol-2-yl)-1-naphthamide]
27.5%	O=C(Nc1nnc(NCC2CCCCC2)s1)c1ccc([N+](=O)[O-])o1 [compound 380, N-{5-[(cyclohexylmethyl)amino]-1,3,4-thiadiazol-2-yl}-5-nitro-2-furamide]
58.9%	O=C(Nc1nnc(NCCCNC2CCCCC2)s1)c1ccc([N+](=O)[O-])o1 [compound 126, N-(5-{[3-(cyclohexylamino)propyl]amino}-1,3,4-thiadiazol-2-yl)-5-nitro-2-furamide]
83.9%	CCOc1ccc2ccccc2c1C(=O)Nc1nnc(NCc2ccc3c(c2)OCO3)s1 [compound 43, N-{5-[(1,3-benzodioxol-5-ylmethyl)amino]-1,3,4-thiadiazol-2-yl}-2-ethoxy-1-naphthamide]
99.3%	O=C(Nc1nnc(NCCC(c2ccccc2)c2ccccc2)s1)c1ccc2c(c1)C(=O)OC2=O [compound 13, N-{5-[(3,3-diphenylpropyl)amino]-1,3,4-thiadiazol-2-yl}-1,3-dioxo-1,3-dihydro-2-benzofuran-5-carboxamide]
40.5%	CC(C)c1cc(C(C)C)c(C(=O)Nc2nnc(NC3CCCCCC3)s2)c(C(C)C)c1 [compound 250, N-[5-(cycloheptylamino)-1,3,4-thiadiazol-2-yl]-2,4,6-triisopropylbenzamide]
67.9%	O=C(/C=C/c1ccccc1)Nc1nnc(NCCCCc2ccccc2)s1 [compound 81, (E)-3-phenyl-N-{5-[(4-phenylbutyl)amino]-1,3,4-thiadiazol-2-yl}-2-propenamide]
78.7%	O=C(Nc1nnc(NCCCCc2ccccc2)s1)c1cc2ccccc2s1 [compound 52, N-{5-[(4-phenylbutyl)amino]-1,3,4-thiadiazol-2-yl}-1-benzothiophen-2-carboxamide]
25.3%	CC1(C)C2CC[C@@H](CNc3nnc(NC(=O)c4cc5ccccc5s4)s3)C1C2 (stereo partly drawn) [compound 403, N-[5-({[(2R)-6,6-dimethylbicyclo[3.1.1]hept-2-yl]methyl}amino)-1,3,4-thiadiazol-2-yl]-1-benzothiophene-2-carboxamide]
60.6%	CCCCCCCC/C=C/CCCCCCCC(=O)Nc1nnc(NCc2cccc3ccccc23)s1 [compound 119, (E)-N-{5-[(1-naphthylmethyl)amino]-1,3,4-thiadiazol-2-yl}-9-octadecenamide]
68.5%	O=C(Nc1nnc(NC2CCCc3ccccc32)s1)c1c(Cl)cccc1Cl (centres unmarked) [compound 76, 2,6-dichloro-N-[5-(1,2,3,4-tetrahydro-1-naphthalenylamino)-1,3,4-thiadiazol-2-yl]benzamide]
